Assay: xn = mol fraction of the nth substance listed
Conditions: 298.15 K, Liquid

CCCCCCCCCl [1-chlorooctane] + CC(=O)N(C)C
mass density [kg/m3]
Conditions	x2 = 0.0963	x2 = 0.2006	x2 = 0.2938	x2 = 0.4059	x2 = 0.5022	x2 = 0.602	x2 = 0.7005	x2 = 0.8075	x2 = 0.901
100 kPa	872	875.8	879.6	884.87	890.2	896.7	904.1	913.7	923.6
2000 kPa	873.5	877.2	881.1	886.2	891.5	898.1	905.4	914.9	924.8
4000 kPa	875	878.7	882.5	887.6	892.9	899.4	906.8	916.3	926.1
6000 kPa	876.5	880.2	884	889	894.3	900.8	908.1	917.5	927.3
8000 kPa	877.9	881.6	885.5	890.4	895.8	902.2	909.4	918.8	928.5
10000 kPa	879.5	883.1	887	892	897.3	903.6	910.8	920	929.8
12000 kPa	880.9	884.5	888.3	893.3	898.5	904.9	912.1	921.3	931
14000 kPa	882.3	885.9	889.7	894.6	899.9	906.1	913.4	922.4	932.2
15900 kPa	–	–	–	–	–	907.4	–	–	–
16000 kPa	883.7	887.3	891.1	896	901.1	–	914.6	923.7	933.3
18000 kPa	885	888.6	892.4	897.3	902.4	908.7	915.8	924.9	934.4
20000 kPa	886.5	890.1	893.9	898.5	903.8	910	917.1	926.1	935.7

CCCCCCCCCl [1-chlorooctane] + CN(C)C=O
mass density [kg/m3]
Conditions	x2 = 0.1042	x2 = 0.2009	x2 = 0.2669	x2 = 0.4023	x2 = 0.4992	x2 = 0.6035	x2 = 0.6982	x2 = 0.8002	x2 = 0.9001
100 kPa	871.7	875.3	877.9	884.2	889.7	896.8	904.7	914.9	927.7
2000 kPa	873.1	876.7	879.4	885.6	891	898.2	906	916.1	928.8
4000 kPa	874.7	878.2	880.8	887.1	892.5	899.6	907.5	917.4	930.2
6000 kPa	876.1	879.7	882.3	888.5	893.9	900.9	908.8	918.8	931.4
7900 kPa	877.6	–	–	–	–	–	–	–	–
8000 kPa	–	881.1	883.7	889.9	895.3	902.3	910.1	920.1	932.6
9900 kPa	–	–	–	–	–	–	–	921.4	–
10000 kPa	879.1	882.7	885.2	891.4	896.8	903.7	911.4	–	933.9
12000 kPa	880.6	884.1	886.6	892.8	898.1	905	912.7	922.7	935.1
13900 kPa	–	885.4	–	–	–	–	–	–	–
14000 kPa	882	–	887.9	894.1	899.4	906.3	914	924	936.3
15900 kPa	883.2	–	889.2	–	900.7	–	–	–	–
16000 kPa	–	886.4	–	895.4	–	907.7	915.4	925	937.6
17900 kPa	–	–	–	896.7	–	–	–	–	938.6
18000 kPa	884.6	888.2	890.6	–	902	908.9	916.5	926.3	–
20000 kPa	886	–	891.8	898	903.3	910.3	917.7	927.5	939.8
20100 kPa	–	889.6	–	–	–	–	–	–	–
